In patent publication US6441195B1, “Substituted sulphonylamino(thio) carbonyl compounds” (Bayer Aktiengesellschaft, priority 1995, dated 2002):

What was measured:
Type in all cases: in vivo
Ambrosia = assay: Pre-emergence test/Greenhouse, Ambrosia; details: after three weeks
Procedure, shortened: (§1)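 Pre-emergence soil drench ~24 h after sowing; compound in solvent/emulsifier diluted with water, constant water per area, dose defined by rate per unit area. Read-out at 3 wk: % damage vs untreated control, 0% = no action.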

Maize [1] = assay: Pre-emergence test/Greenhouse, Maize; details: in vivo
Procedure, shortened: as §1

Poa = assay: Pre-emergence test/Greenhouse, Poa; details: after three weeks
Procedure, shortened: as §1

Matricaria [2] = assay: Pre-emergence test/Greenhouse, Matricaria; details: after three weeks
Procedure, shortened: as §1

weeds [3] = assay: Post-emergence test (greenhouse), activity against weeds; details: in words
Experimental: (§2) Solvent: 5 parts by weight of acetone
(§3) Emulsifier: 1 part by weight of alkylaryl polyglycol ether
(§4) To produce a suitable preparation of active compound, 1 part by weight of active compound is mixed with the stated amount of solvent, the stated amount of emulsifier is added and the concentrate is diluted with water to the desired concentration.
(§5) Test plants which have a height of 5-15 cm are sprayed with the preparation of the active compound in such a way as to apply the particular amounts of active compound desired per unit area. The concentration of the spray liquor is chosen so that the particular amounts of active compound desired are applied in 2000 l of water/ha.
(§6) After three weeks, the degree of damage to the plants is rated in % damage in comparison to the development of the untreated control.
(§7) 0%=no action (like untreated control)

Echinochloa = assay: Post-emergence test/greenhouse, Echinochloa; details: greenhouse, after three weeks
Experimental: as §2, §3, §4, §5, §6, §7

Solanum = assay: Pre-emergence test/Greenhouse, Solanum; details: after three weeks
Procedure, shortened: as §1

weeds [4] = assay: Pre-emergence test (greenhouse), activity against weeds; details: in words
Procedure, shortened: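 Three weeks after treatment, % damage relative to untreated plants is scored, 0% meaning no effect. Seeds in normal soil received, roughly one day post-sowing, an aqueous dilution of an acetone/emulsifier concentrate, with the rate per unit area, not concentration, being the relevant dose.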

Lolium [5] = assay: Pre-emergence test/Greenhouse, Lolium; details: after three weeks
Procedure, shortened: as §1

Lolium [6] = assay: Post-emergence test/greenhouse, Lolium; details: greenhouse, after three weeks
Experimental: as §2, §3, §4, §5, §6, §7

Sorghum [7] = assay: Pre-emergence test/Greenhouse, Sorghum; details: after three weeks
Procedure, shortened: as §1

Digitaria = assay: Post-emergence test/greenhouse, Digitaria; details: greenhouse, after three weeks
Experimental: as §2, §3, §4, §5, §6, §7

Amaranthus = assay: Post-emergence test/greenhouse, Amaranthus; details: greenhouse, after three weeks
Experimental: as §2, §3, §4, §5, §6, §7

Gallium = assay: Post-emergence test/greenhouse, Gallium; details: greenhouse, after three weeks
Experimental: as §2, §3, §4, §5, §6, §7

Stellaria = assay: Post-emergence test/greenhouse, Stellaria; details: greenhouse, after three weeks
Experimental: as §2, §3, §4, §5, §6, §7

Sorghum [8] = assay: Post-emergence test/greenhouse, Sorghum; details: greenhouse, after three weeks
Experimental: as §2, §3, §4, §5, §6, §7

Matricaria [9] = assay: Post-emergence test/greenhouse, Matricaria; details: greenhouse, after three weeks
Experimental: as §2, §3, §4, §5, §6, §7

Maize [10] = assay: Post-emergence test/greenhouse, Maize; details: greenhouse, 60 g of ai./ha, after three weeks
Experimental: as §2, §3, §4, §5, §6, §7

SMILES	degree of damage to the plants (% damage vs untreated control), Maize (Maize [1]) [%]	activity against weeds (weeds [3])	degree of damage, Echinochloa (Echinochloa; 60 g of ai./ha) [%]	activity against weeds (weeds [4])	degree of damage, Lolium (Lolium [6]; 60 g of ai./ha) [%]	degree of damage, Digitaria (Digitaria; 60 g of ai./ha) [%]	degree of damage, Amaranthus (Amaranthus; 60 g of ai./ha) [%]	degree of damage, Gallium (Gallium; 60 g of ai./ha) [%]	degree of damage, Stellaria (Stellaria; 60 g of ai./ha) [%]	degree of damage, Sorghum (Sorghum [8]; 60 g of ai./ha) [%]	degree of damage, Matricaria (Matricaria [9]; 60 g of ai./ha) [%]	other results
CCSc1nn(C(=O)NS(=O)(=O)c2c(C)cccc2C(=O)OC)c(=O)n1C1CC1 [Example 159]	10	very strong activity against weeds	80	very strong activity against weeds	60	60	95	95	100	70	100	degree of damage to the plants (% damage vs untreated control), Ambrosia (Ambrosia; 30 g of ai./ha): 95%; degree of damage to the plants (% damage vs untreated control), Poa (Poa; 30 g of ai./ha): 95%; degree of damage to the plants (% damage vs untreated control), Matricaria (Matricaria [2]; 30 g of ai./ha): 95%; degree of damage to the plants (% damage vs untreated control), Solanum (Solanum; 30 g of ai./ha): 95%; degree of damage to the plants (% damage vs untreated control), Lolium (Lolium [5]; 30 g of ai./ha): 90%; degree of damage to the plants (% damage vs untreated control), Sorghum (Sorghum [7]; 30 g of ai./ha): 60%
COC(=O)c1cccc(C)c1S(=O)(=O)NC(=O)n1nc(OC(C)C)n(C2CC2)c1=O [Example 166]	40	very strong activity against weeds	70	very strong activity against weeds	50	70	95	95	95	90	100	degree of damage to the plants (% damage vs untreated control), Ambrosia (Ambrosia; 15 g of ai./ha): 80%; degree of damage to the plants (% damage vs untreated control), Poa (Poa; 15 g of ai./ha): 90%; degree of damage to the plants (% damage vs untreated control), Matricaria (Matricaria [2]; 15 g of ai./ha): 95%; degree of damage to the plants (% damage vs untreated control), Solanum (Solanum; 15 g of ai./ha): 90%; degree of damage to the plants (% damage vs untreated control), Lolium (Lolium [5]; 15 g of ai./ha): 90%; degree of damage to the plants (% damage vs untreated control), Sorghum (Sorghum [7]; 15 g of ai./ha): 70%
CCOn1c(CC)nn(C(=O)NS(=O)(=O)c2c(C)csc2C(=O)OC)c1=O [Example 38]	0	very strong activity against weeds	90	very strong activity against weeds	–	70	100	–	95	95	95	degree of damage to the plants (% damage vs untreated control), Ambrosia (Ambrosia; 60 g of ai./ha): 95%; degree of damage to the plants (% damage vs untreated control), Poa (Poa; 60 g of ai./ha): 70%; degree of damage to the plants (% damage vs untreated control), Matricaria (Matricaria [2]; 60 g of ai./ha): 95%; degree of damage, Maize (Maize [10]): 10%; degree of damage to the plants (% damage vs untreated control), Solanum (Solanum; 60 g of ai./ha): 95%; degree of damage to the plants (% damage vs untreated control), Lolium (Lolium [5]; 60 g of ai./ha): 95%; degree of damage to the plants (% damage vs untreated control), Sorghum (Sorghum [7]; 60 g of ai./ha): 60%
CCCOc1nn(C(=O)[N-]S(=O)(=O)c2c(C)cccc2C(=O)OC)c(=O)n1C.[Na+] [Example 144]	–	very strong activity against weeds	–	very strong activity against weeds	–	–	–	–	–	–	–	degree of damage to the plants (% damage vs untreated control), Ambrosia (Ambrosia; 125 g of ai./ha): 80%; degree of damage to the plants (% damage vs untreated control), Poa (Poa; 125 g of ai./ha): 90%; degree of damage to the plants (% damage vs untreated control), Matricaria (Matricaria [2]; 125 g of ai./ha): 95%; degree of damage, Echinochloa (Echinochloa; 250 g of ai./ha): 95%; degree of damage to the plants (% damage vs untreated control), Solanum (Solanum; 125 g of ai./ha): 95%; degree of damage to the plants (% damage vs untreated control), Lolium (Lolium [5]; 125 g of ai./ha): 90%; degree of damage, Lolium (Lolium [6]; 250 g of ai./ha): 70%; degree of damage to the plants (% damage vs untreated control), Sorghum (Sorghum [7]; 125 g of ai./ha): 95%; degree of damage, Digitaria (Digitaria; 250 g of ai./ha): 95%; degree of damage, Amaranthus (Amaranthus; 250 g of ai./ha): 100%; degree of damage, Gallium (Gallium; 250 g of ai./ha): 95%; degree of damage, Stellaria (Stellaria; 250 g of ai./ha): 95%; degree of damage, Sorghum (Sorghum [8]; 250 g of ai./ha): 95%; degree of damage, Matricaria (Matricaria [9]; 250 g of ai./ha): 70%
